According to ChEMBL document CHEMBL3608244, “Left-Hand Side Exploration of Novel Bacterial Topoisomerase Inhibitors to Improve Selectivity against hERG Binding” (ACS Med Chem Lett, 2015):
In brackets after ≈: the same amount, converted by molar mass.

How the values were obtained:
Format in all cases: functional
[1] = tested on: Mycobacterium tuberculosis; test: Antimycobacterial activity against 6-((1-(2-(7-chloro-2-oxo-1,8-naphthyridin-1(2H)-yl)ethyl)piperidin-4-ylamino)methyl)-2H-pyrido[3,2-b][1,4]oxazin-3(4H)-one resistant Mycobacterium tuberculosis H37Rv harboring DNA gyraseA A74V mutant incubated for 7 days by microdilution method
[2] = tested on: Mycobacterium tuberculosis; test: Antimycobacterial activity against 1-(2-(4-((5-chloro-6-methylpyridin-3-yl)methylamino)piperidin-1-yl)ethyl)-7-fluoro-1,5-naphthyridin-2(1H)-one resistant Mycobacterium tuberculosis H37Rv harboring DNA gyraseA D89N mutant incubated for 7 days by microdilution method
[3] = tested on: Mycobacterium tuberculosis; test: Antimycobacterial activity against moxifloxacin resistant Mycobacterium tuberculosis H37Rv harboring DNA gyraseA G88N mutant incubated for 7 days by microdilution method
[4] = tested on: Mycobacterium tuberculosis; test: Ratio of MIC for 1-(2-(4-((5-chloro-6-methylpyridin-3-yl)methylamino)piperidin-1-yl)ethyl)-7-fluoro-1,5-naphthyridin-2(1H)-one resistant Mycobacterium tuberculosis H37Rv harboring DNA gyraseA D89N mutant to MIC for Mycobacterium tuberculosis H37Rv ATCC 27294
[5] = tested on: Mycobacterium tuberculosis; test: Ratio of MIC for 6-((1-(2-(7-chloro-2-oxo-1,8-naphthyridin-1(2H)-yl)ethyl)piperidin-4-ylamino)methyl)-2H-pyrido[3,2-b][1,4]oxazin-3(4H)-one resistant Mycobacterium tuberculosis H37Rv harboring DNA gyraseA A74V mutant to MIC for Mycobacterium tuberculosis H37Rv ATCC 27294

Row | Compound | MIC [1] [µM] | MIC [2] [µM] | MIC [3] [µM] | Ratio [4] | Ratio [5]
1 | COc1c(N2C[C@@H]3CCCN[C@@H]3C2)c(F)cc2c(=O)c(C(=O)O)cn(C3CC3)c12 [MOXIFLOXACIN] | 0.25 (≈ 0.1 µg/mL) | 2 (≈ 0.803 µg/mL) | 4 (≈ 1.61 µg/mL) | – | –
2 | O=C1COc2ccc(CN[C@@H]3CCN(CCn4c(=O)ccc5ncc(Oc6cccnc6)cc54)C[C@@H]3F)nc2N1 | 50 (≈ 27.3 µg/mL) | >100 | 0.39 (≈ 0.213 µg/mL) | – | –
3 | NNC(=O)c1ccncc1 [ISONIAZID] | 0.06 (≈ 0.00823 µg/mL) | 0.03 (≈ 0.00411 µg/mL) | 0.06 (≈ 0.00823 µg/mL) | – | –
4 | O=C1COc2ccc(CNC3CCN(CCn4c(=O)ccc5ccc(Oc6cccnc6)nc54)CC3)nc2N1 | 8 (≈ 4.22 µg/mL) | >100 | 0.78 (≈ 0.412 µg/mL) | >25 | >25
5 | O=C1COc2ccc(CNC3CCN(CCn4c(=O)ccc5ccc(Oc6cncnc6)nc54)CC3)nc2N1 | 50 (≈ 26.4 µg/mL) | >100 | 0.06 (≈ 0.0317 µg/mL) | >25 | >25
6 | CO[C@H]1/C=C/O[C@@]2(C)Oc3c(C)c(O)c4c(O)c(c(/C=N/N5CCN(C)CC5)c(O)c4c3C2=O)NC(=O)/C(C)=C\C=C\[C@H](C)[C@H](O)[C@@H](C)[C@@H](O)[C@@H](C)[C@H](OC(C)=O)[C@@H]1C [RIFAMPIN] | 0.008 (≈ 0.00658 µg/mL) | – | 0.008 (≈ 0.00658 µg/mL) | – | –
7 | O=C(O)c1cn(C2CC2)c2cc(N3CCNCC3)c(F)cc2c1=O [CIPROFLOXACIN] | 0.5 (≈ 0.166 µg/mL) | 16 (≈ 5.3 µg/mL) | 8 (≈ 2.65 µg/mL) | – | –
8 | Cc1ncc(CNC2CCN(CCn3c(=O)ccc4ncc(F)cc43)CC2)cc1Cl | 2 (≈ 0.86 µg/mL) | >100 | <0.19 | – | –
9 | O=C1COc2ccc(CNC3CCN(CCn4c(=O)ccc5ccc(Cl)nc54)CC3)nc2N1 | 4 (≈ 1.88 µg/mL) | >100 | <0.19 | – | –
